The supplement of paper PMC10307832

Tests used:
Test in all cases: relative viability (nuclei count vs DMSO), 5 days (fraction); higher = more cells survive
[1] = compound: C1=CC=C(C(=C1)C2=CC=C(C=C2)C3=CSC4=C3C(=C(C(=O)N4)C#N)O)O + Nc1nc2[nH]cc(CCc3ccc(C(=O)N[C@@H](CCC(=O)O)C(=O)O)cc3)c2c(=O)[nH]1 [Pemetrexed] (partner 0.2 µM)
Procedure, shortened: (§1)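 Lung cancer cell lines in 1536-well plates got either a single drug or a fixed anchor-drug dose together with five library-drug doses (not always all listed) in √10 steps, by pin tool, on the day after seeding. Nuclei were counted after 5 days, and relative viability is the treated-to-vehicle ratio of nuclei counts. Values are medians of duplicate plates.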

Ricolinostat + Alpelisib = compound: O=C(CCCCCCNC(=O)c1cnc(N(c2ccccc2)c2ccccc2)nc1)NO [Ricolinostat] + Cc1nc(NC(=O)N2CCC[C@H]2C(N)=O)sc1-c1ccnc(C(C)(C)C(F)(F)F)c1 [Alpelisib] (partner 2 µM)
Procedure, shortened: as §1

TGX 221 + Foretinib = compound: CC1=CN2C(=O)C=C(N=C2C(=C1)C(C)NC3=CC=CC=C3)N4CCOCC4 [TGX 221] + COc1cc2c(Oc3ccc(NC(=O)C4(C(=O)Nc5ccc(F)cc5)CC4)cc3F)ccnc2cc1OCCCN1CCOCC1 [Foretinib] (partner 0.25 µM)
Procedure, shortened: as §1

TGX 221 + Pictilisib = compound: CC1=CN2C(=O)C=C(N=C2C(=C1)C(C)NC3=CC=CC=C3)N4CCOCC4 [TGX 221] + CS(=O)(=O)N1CCN(Cc2cc3nc(-c4cccc5[nH]ncc45)nc(N4CCOCC4)c3s2)CC1 [Pictilisib] (partner 1 µM)
Procedure, shortened: as §1

Cell Line | relative viability ([1]; first compound 0.253 µM) | relative viability ([1]; first compound 0.8 µM) | relative viability ([1]; first compound 2.53 µM) | relative viability ([1]; first compound 8 µM) | relative viability (Ricolinostat + Alpelisib; first compound 0.08 µM) | relative viability (Ricolinostat + Alpelisib; first compound 0.8 µM) | relative viability (Ricolinostat + Alpelisib; first compound 2.53 µM) | relative viability ([1]; first compound 0.08 µM) | relative viability (TGX 221 + Foretinib; first compound 0.08 µM) | relative viability (TGX 221 + Foretinib; first compound 0.253 µM) | relative viability (TGX 221 + Foretinib; first compound 0.8 µM) | relative viability (TGX 221 + Foretinib; first compound 2.53 µM) | relative viability (TGX 221 + Foretinib; first compound 8 µM) | relative viability (TGX 221 + Pictilisib; first compound 0.08 µM) | relative viability (TGX 221 + Pictilisib; first compound 0.253 µM) | relative viability (TGX 221 + Pictilisib; first compound 0.8 µM) | relative viability (TGX 221 + Pictilisib; first compound 2.53 µM) | relative viability (TGX 221 + Pictilisib; first compound 8 µM) | relative viability (Ricolinostat + Alpelisib; first compound 0.253 µM)
NCI-H1648 | 0.682 | 0.732 | 0.813 | 0.747 | – | – | – | – | – | – | – | – | – | – | – | – | – | – | –
NCI-H1755 | 0.469 | 0.545 | 0.439 | 0.714 | 0.771 | 0.92 | 0.902 | 0.463 | 0.926 | 0.884 | 0.82 | 0.763 | 0.781 | 0.412 | 0.381 | 0.406 | 0.372 | 0.425 | –
PC-3 [JPC-3] | 1.19 | 1.06 | 0.942 | 0.98 | 0.941 | 0.948 | 0.909 | 1.08 | 1 | 1.03 | 1.05 | 0.947 | 0.972 | 0.642 | 0.73 | 0.772 | 0.748 | 0.754 | 0.996
HCC-44 | 0.61 | 0.649 | 0.613 | 0.57 | 0.694 | 0.725 | 0.612 | 0.702 | – | – | – | – | – | 0.648 | 0.571 | 0.615 | 0.555 | 0.541 | 0.743
CAL-12T | 1.23 | 1.24 | 1.43 | 1.33 | 1.1 | 1.15 | 0.912 | 0.958 | 0.994 | 1.12 | 1.27 | 1.15 | 1.09 | – | 0.415 | 0.376 | – | 0.519 | 0.998
ChaGo-K-1 | 0.257 | 0.256 | 0.251 | 0.256 | – | – | – | 0.271 | 0.989 | 0.871 | 0.926 | 0.827 | 0.876 | 0.548 | 0.644 | 0.683 | 0.47 | 0.966 | –
NCI-H2126 | 0.823 | 0.694 | 0.664 | 0.513 | 0.578 | 0.716 | 0.628 | 0.837 | 1.19 | 1.11 | 1 | 1.05 | 1.05 | 0.452 | 0.498 | 0.488 | 0.458 | 0.518 | 0.707
HCC-827 | 0.25 | 0.244 | 0.305 | 0.282 | 0.615 | 0.935 | 0.985 | 0.283 | 1.08 | 1.08 | 1.07 | 0.927 | 0.904 | 1.02 | 0.979 | 1.09 | 0.896 | 0.732 | 0.938
LCLC-97TM1 | 0.179 | 0.16 | 0.182 | 0.166 | 0.177 | 0.188 | 0.306 | 0.177 | 0.949 | 1.01 | 0.904 | 0.959 | 0.802 | 0.197 | 0.196 | 0.165 | 0.164 | 0.188 | 0.288
HCC-15 | 0.232 | 0.213 | 0.242 | 0.215 | 0.753 | 0.834 | 0.894 | 0.237 | 0.993 | 0.964 | 1 | 0.973 | 1 | 0.806 | 0.706 | 0.784 | 0.71 | 0.782 | 0.875
NCI-H727 | – | – | – | – | 0.546 | 0.759 | 0.502 | – | 0.876 | 1.05 | 1.16 | 1.12 | 1.05 | 0.455 | 0.464 | 0.402 | 0.43 | 0.356 | 0.64
NCI-H2170 | 0.268 | 0.285 | 0.254 | 0.261 | 0.687 | 0.862 | 0.934 | 0.279 | 0.995 | 1.1 | 0.991 | 0.945 | 0.978 | 0.312 | 0.288 | 0.325 | 0.376 | 0.357 | 0.764
201T | 0.331 | 0.358 | 0.353 | 0.298 | 0.905 | 1.03 | 0.887 | 0.354 | 1.22 | 1.09 | 1.13 | 0.931 | 0.817 | – | 0.715 | 0.689 | 0.63 | 0.621 | 0.946
NCI-H838 | 0.291 | 0.253 | 0.233 | 0.243 | 0.903 | 1.04 | 1.08 | 0.209 | 1.04 | 0.952 | 0.945 | 0.799 | 0.7 | 0.427 | 0.364 | 0.425 | 0.495 | 0.404 | 1.08
NCI-H1915 | 0.443 | 0.486 | 0.481 | 0.506 | 1.01 | 1.01 | 0.962 | 0.437 | 0.941 | 1.07 | 1.08 | 1.04 | 1.05 | 0.892 | 0.895 | 1 | 0.805 | 0.949 | 1.06
LCLC-103H | 0.453 | 0.431 | 0.456 | 0.519 | 0.814 | 0.883 | 0.959 | 0.51 | 0.698 | 0.761 | 0.883 | 0.724 | 0.619 | 0.566 | 0.592 | 0.678 | 0.577 | 0.609 | 0.971
SK-LU-1 | 0.943 | 0.918 | 1.03 | 0.806 | 0.947 | 0.84 | 0.708 | 0.933 | 0.808 | 0.703 | 0.768 | 0.63 | 0.657 | 0.601 | 0.536 | 0.576 | 0.553 | 0.568 | 0.914
NCI-H2347 | 0.429 | 0.403 | 0.444 | 0.406 | 0.889 | 0.987 | 0.963 | 0.367 | – | 0.879 | 0.769 | 0.622 | 0.49 | 0.608 | 0.798 | 0.433 | 0.58 | 0.428 | 1.01
ABC-1 | – | – | – | – | 0.955 | 1.11 | 0.648 | – | 1.1 | 0.806 | 0.817 | 1.1 | 0.835 | 0.677 | 0.491 | 0.94 | 0.766 | 0.704 | 0.933
